According to a melting point compilation (Tetko et al.; mined from patent text by program, amines drawn as free bases though some values may be those of a salt):

Row | Compound | melting point [°C]
1 | N#Cc1cccc(-c2nc(-c3ccccn3)no2)c1 | 148 to 149
2 | CC1(C)OCC(COc2ccc(Br)cc2C23CC4CC(CC(C4)C2)C3)O1 (stereo not drawn) | 91
3 | FC(F)(F)c1cccc(N2CCN(Cc3cn4cc(Cl)ccc4n3)CC2)c1 | 145 to 146
4 | CCOC(=O)c1cc(C)nc2c(OCc3ccccc3)cccc12 | 134
5 | COC(=O)c1nc(N)sc1-c1ccc(SC)cc1 | 184 to 185
6 | COC(=O)c1ccc2c(c1)S(=O)(=O)c1ccccc1NC2 | 236
7 | CCCOc1nc(C(F)(F)F)cc(=O)n1-c1cc(O)c(Cl)cc1F | 122 to 123
8 | COC(=O)CCCc1cc2nc(Cl)ccc2n1S(=O)(=O)c1ccc(C)c2ccccc12 | 118 to 120
9 | O=S1(=O)N=CN(C2CCCCC2)c2ccc(Cl)cc21 | 209 to 211
10 | CNC(=C[N+](=O)[O-])NCCCCOc1cccc(CCN(C)C)c1 | 59 to 63
11 | CN(C)C(=O)c1ccc(-c2ccc(N)cc2)cc1 | 184 to 186
12 | CN(C)C=CC(=O)c1ccc(C(=O)N2Cc3cccn3Cc3ccccc32)cc1 | 203 to 205
13 | Cc1nc(Cl)c2c(C)c(C)n(-c3c(C)cc(C)c4nsnc34)c2n1 | 169 to 171
14 | COc1c(C)cc(NC(C)=O)c(Br)c1C | 152 to 153
15 | O=c1ccoc2cccc(OCCCN3CCN(c4ccccc4)CC3)c12 | 106 to 112
16 | Cc1ccc(N2CCc3ccccc32)c([N+](=O)[O-])c1 | 93 to 95
17 | CCCOc1ccc(OC)cc1-c1ncc(C(N)=O)c(=O)[nH]1 | 206 to 207
18 | COC(=O)C(=O)c1ccc(OCCOc2ccc(OC)cc2)cc1 | 114 to 115
19 | CSC1=NC(=O)C(=Cc2cc(C(C)(C)C)c(O)c(C(C)(C)C)c2)N1 | 248 to 249
20 | NNC(=O)CCc1csc(NC(N)=NCC(F)(F)F)n1 | 125 to 126
21 | CNC(=O)c1ccccc1Nc1nc(Nc2ccc3c(c2)CCN(S(C)(=O)=O)CC3)ncc1Cl | 251 to 256
22 | Cc1ccc(-c2ccc(C(=O)Nc3ccc4cc(CN5CCCC5)cnc4c3)c(F)c2)cc1 | 173
23 | O=C(NCc1cocn1)c1ccnc(N2CCN(Cc3ccc(F)cc3)C2=O)c1 | 197 to 199
24 | Cc1c(C=O)c2c(c(C)c1NC=O)C(c1ccc(C(C)C)cc1)CO2 (stereo not drawn) | 123 to 124
25 | Cc1cnc2c(NC(=O)c3c(Cl)cccc3Cl)cccc2c1N1CCN(C)C1=O | 288

Row | Compound | melting point [°C]
26 | Cc1ccc(C(=O)NC(NC(=NC#N)Nc2ccc(Cl)nc2)C(C)(Cl)Cl)cc1 (stereo not drawn) | 198 to 200
27 | O=C(O)c1cccc(OC(Cl)=CCl)c1 | 137 to 141
28 | Cc1cccc(-c2nc(C3CCN(C)CC3)sc2-c2ccnc(NC(=O)c3ccccc3)c2)c1 | 151 to 152
29 | CCOC(=O)C(=Cc1cccn2c(Br)c(C)nc12)N=[N+]=[N-] | 108 to 110
30 | CCOC(=O)c1cnc2cc(OCc3ccccc3)c(OCc3ccccc3)cn2c1=O | 175
31 | CCc1nc(-c2nn(Cc3ccccc3F)c3ccccc23)oc1CO | 144
32 | Cc1cccc2c1ccc1c(O)cc(=O)oc12 | 223 to 225
33 | O=S(=O)(Cl)c1nc2nc(CF)cc(Cl)n2n1 | 92 to 98
34 | CCOC(=O)c1cnc2c(F)cc(I)cc2c1O | 287 to 289
35 | O=C1NCN(c2ccccc2)C12CCN(CCCC1(c3ccc(F)cc3F)OCCO1)CC2 | 58 to 62
36 | O=C(Cc1c(C(=O)c2ccccc2)[nH]c2cc(Cl)ccc12)NCCO | 178 to 180
37 | O=S(CCCn1cnc(-c2ccc(F)cc2)c1-c1ccncc1)c1ccccc1 (stereo not drawn) | 146 to 148
38 | O=C(Nc1cc(-c2nc(Cc3ccccc3)no2)ccn1)c1ccccc1 | 150 to 151
39 | CC(=O)Oc1cccnc1-n1ccnc1SCc1ccccc1N1CCOCC1 | 89 to 91
40 | COc1ccc(COc2ccc(C(=O)NC[C@@H](C(=O)NO)N3CCN(S(C)(=O)=O)CC3)cc2)cc1 | 148
41 | CCN(CC)CCCNc1nc(Cl)nc(NCCCN(CC)CC)n1 | 119
42 | CCCC1CCC(C2CCC(C3CCC(C(=O)OC)C(=O)C3)CC2)CC1 (stereo not drawn) | 154
43 | CN1C(=O)Cc2c(sc3ccccc23)S1(=O)=O | 175 to 178
44 | C=C(C)CN1C[C@H](C)Nc2c(cc(Cl)cc2[N+](=O)[O-])C1=O | 66.5
45 | COc1c(C)c(C)c(OC)c(C(O)(c2cccnc2)C2CCCCC2)c1C (stereo not drawn) | 134 to 135
46 | C#Cc1ccc2ccc(C#C)cc2c1 | 124 to 126
47 | CCOC(=O)c1cc(C(=O)c2cccc(S(=O)(=O)F)c2)sc1N | 168 to 170
48 | COc1ccc2[nH]c(S(=O)Cc3ncc(C)c(N4CCOCC4)c3Cl)nc2c1 (stereo not drawn) | 147 to 148
49 | Cc1cc(CCCCCOc2ccc(-c3ccco3)cc2)on1 | 86 to 88
50 | CCc1cn(C)cc(-c2ccc(Cl)c(C(F)(F)F)c2)c1=O | 121 to 123

Row | Compound | melting point [°C]
51 | N=C(N)NCCC[C@@H](NC(=O)C(c1ccccc1)c1ccccc1)C(=O)NCc1ccc(CCC(N)=O)cc1 | 207 to 208
52 | NC(=O)c1c(N)sc2c1CCC1(C2)OCCO1 | 157 to 158
53 | COc1cccc2c(=O)n(/C=C/C(=O)O)cnc12 | 289 to 291
54 | CS(=O)(=O)c1ccc(C(CC2CCCC2)C(=O)O)cc1 (stereo not drawn) | 152 to 154
55 | CCOc1ccc(C2=NN(CCCCCC(=O)O)C(=O)[C@H]3CC=CC[C@@H]23)cc1OCC (relative stereo) | 97 to 99
56 | CC(C)(C)OC(=O)CNNC(=O)OCc1ccccc1 | 61 to 62
57 | NC(=O)c1sc2ncnc(-c3cccc(NC(=O)Nc4cccc(C(F)(F)F)c4)c3)c2c1N | 201 to 203
58 | CCOc1ccccc1-c1cccc(-n2cnc(-c3nc(C)no3)c2)c1 | 110 to 113
59 | O=C(NCCCCCCCCn1ccnc1)c1ccc(Cl)nc1 | 79 to 81
60 | COc1ccc(C2(O)OC(=O)C(c3ccc4nsnc4c3)=C2Cc2ccccc2)cc1 (stereo not drawn) | 40 to 41
61 | CNc1nc(Cl)c(OC(F)F)c(N(C)C)n1 | 127 to 130
62 | Cc1ccc(CS(=O)c2nc3cc4c(cc3[nH]2)OCO4)nc1 (stereo not drawn) | 185 to 187
63 | CCOC(=O)C1=C(C)NC(N=C(C)N(C)C)=C(C(=O)OCC)C1c1ccccc1Cl (stereo not drawn) | 181
64 | CCCCCCNP(N)(N)=S | 65 to 70
65 | Cc1nc(N)sc1-c1ccnc(Nc2cccc(S(=O)(=O)N3CCOCC3)c2)n1 | 215 to 216
66 | COc1ccc(C(=O)Nn2c(=O)[nH]c3ccccc3c2=O)cc1 | 289
67 | O=C(c1ccccc1)N1CCC(Cc2ccccc2)(C(=O)O)CC1 | 183 to 189
68 | Cc1ccnc(C(=O)c2ccc(F)cc2)c1 | 98 to 100
69 | CCOC(=O)C1=C(C)NN=C(C(=O)OC)C1c1ccccc1C (stereo not drawn) | 165
70 | Cn1c(C(=O)O)c(-c2ccc(F)cc2)c2nccnc2c1=O | 247 to 249
71 | Cc1ccc2c(O)c(CS(C)(=O)=O)cnc2c1 | 285 to 290
72 | COC(=O)c1cc(C(=O)NC2CCCC2)c2cc(Cc3ccc(F)cc3)cnc2c1O | 221 to 222
73 | Cc1ccnc(C(=O)c2[nH]c3cc(Cl)c(F)cc3c2CC(=O)O)c1 | 220
